One test relates to HCVcc. Nature of the test: HCV cell-to-cell spread, foci-size assay with cell-free spread blocked by anti-E2 antibody. It counts as cell-based, Hepatitis C virus (HCV). As for the experimental part: Using an established antibody blocking approach (Timpe, et al. (2008) Hepatology 47:17-24), in which an antibody to the HCV E2 glycoprotein is used to block cell-free virus spread, the role of NPC1L1, CD81, or claudin-1 in cell-to-cell spread was tested. Briefly, subconfluent Huh7 cells were inoculated with HCVcc at a low multiplicity of infection (MOI) of 0.01 ffu/cell for 15 hours to allow sufficient time for initial viral entry into the primary cells (Sabahi, et al. (2010) Virology 407:110-9). Cells were then washed and cell-free virus spread was blocked by addition of an anti-E2 antibody at a concentration which neutralizes extracellular virus infection of cells. In parallel, cultures were co-treated with antibodies to CD81, Claudin-1 or NPC1L1 to determine if blocking of these factors prevents cell-to-cell spread. At seventy two hours post-infection, monolayers were fixed and stained for HCV-positive foci. Spread was determined by the size of the foci, as quantified by the number of cells per foci. Foci composed of 1-2 HCV E2-positive cells, which could have formed via cell division, were scored as infections that had not spread cell-to-cell, and are referred to as one-two cell foci, and represent a baseline for the assay. Foci containing […] cells were scored as infections that had successfully spread cell-to-cell, and are referred to as multicellular foci.
To confirm the role of NPC1L1 in HCV spread and verify that ezetimibe inhibits HCV cell-to-cell spread, Huh7-1 cells were inoculated with HCV JFH-1 at an MOI of 0.01 for 16 hours to allow cell-free entry to initiate infection in a small percentage of cells, before being washed and then incubated with increasing concentrations of ezetimibe. Once again extracellular HCV entry was blocked by the addition of anti-E2 antibody to neutralize cell-free virus in all cultures. […] Cells were fixed at 72 hours post-infection, and then stained to detect the number and the size of the E2-positive foci. The foci were counted and scored as one-two cell foci or as multicellular foci. […] To ensure that multicellular foci were not a result of cell division over the time course of the experiment, the same experiment was repeated in non-growing Huh7-1 cells and similar results were obtained.
Because HCV cell-free spread requires the production and secretion of infectious viral particles from infected cells, an alternative way to block cell-free virus spread is to prevent the release of infectious virus from already infected cells. […] It was of interest to determine whether the VLDL secretory pathway and related virion lipid modifications are required for cell-to-cell spread. […]

Test [1] relates to intergenotypic HCVcc chimeras. Nature of the test: Cell-to-cell spread of intergenotypic HCVcc chimeras in non-growing Huh7-1 cells. It counts as cell-based, Hepatitis C virus (HCV). The source says: To determine if ezetimibe might be an effective therapeutic for inhibiting HCV spread of other HCV genotypes, intergenotypic HCVcc chimeras were used, in which the core through E2 region of the JFH-1 clone had been replaced with analogous regions of various HCV genotypes including H77C, J4, J8, ED43, SA13, HK6A and QC69 (Gottwein, et al. (2009) Hepatology 49(2):364-77). Again, to avoid issues of cell division, non-growing Huh7-1 cells were infected with the different chimeric viruses, and after 16 hours, the cells were washed and 0 μM or 30 μM ezetimibe was added to parallel cultures. Since the chimeras encode unique E2 proteins and thus may have differing sensitivity to inhibition by the anti-E2 antibody, in this experiment methyl cellulose was added to all cultures as an alternative means of minimizing cell-free virus spread. Seventy-two hours post-infection, the cells were fixed and stained with an antibody to HCV NS5A to detect the size of the foci formed. In all cases, the size of foci formed by each chimera were reduced in the presence of ezetimibe relative to the mock-treated control culture confirming not only that all of these genotypes use the NPC1L1 receptor for cell-to-cell spread, but that the spread of all the chimeric viruses can be inhibited by ezetimibe.
To determine if naringenin affects spread of any of the other HCV genotypes, non-growing Huh7-1 cells were infected with the different intergenic chimeric viruses and after 16 hours, the cells were washed and naringenin was added. Methyl cellulose was added to each well to prevent cell-free virus spread. In parallel, a control set of wells was treated with methyl cellulose alone. Five days post-infection, the cells were fixed and stained to detect the number of HCV NS5A-positive cells.

Each structure is given as a SMILES string.

On to `O=C1[C@H](CC[C@H](O)c2ccc(F)cc2)[C@@H](c2ccc(O)cc2)N1c1ccc(F)cc1` [ezetimibe, 1-(4-fluorophenyl)-(3R)-[3-(4-fluorophenyl)-(3S)-hydroxypropyl]-(45)-(4-hydroxyphenyl)-2-azetidinone], for which the size of foci result in the test on HCVcc (30 μM added post-viral inoculation) is “foci of 1-2 cells”. In addition, the “number of independent infection initiation events (foci of 1-2 E2-positive cells)” value in the test on HCVcc (added post-infection, 24 hours post-infection) is “did not block infection”. Moreover, the “size of the E2-positive foci formed” value in the test on HCVcc (increasing concentrations added post-inoculation, 72 hours post-infection) was “dose-dependent inhibition”. The “size of foci formed by each chimera” value in test [1] (30 μM, methyl cellulose, 72 hours post-infection, relative to mock-treated) was “reduced”.

On to `O=C1C[C@@H](c2ccc(O)cc2)Oc2cc(O)cc(O)c21` [naringenin], for which the “HCV cell-to-cell spread (number and size of foci)” value in the test on HCVcc (non-growing Huh7-1 cells, five days post-infection, vs vehicle) is listed as “inhibition of cell-to-cell spread was not detected”. Besides, the “size of foci, J8/JFH-1 (2B/JFH-1) chimera” value in test [1] (J8/JFH-1 chimera) is recorded as “reduced the size of foci”. Moreover, the “cell-to-cell spread of chimeric viruses” value in test [1] (all chimeric viruses except J8/JFH-1, five days post-infection) is recorded as “not inhibited”.

(Values after patent publication US9034863B2, “Compositions and methods for inhibiting entry of a hepatic virus” (The Board of Trustees of the University of Illinois, priority 2008, dated 2015).)
